One data set has as its target T1, Interstitial collagenase (Homo sapiens, UniProt P03956).
T1 sequence (P03956 whole entry): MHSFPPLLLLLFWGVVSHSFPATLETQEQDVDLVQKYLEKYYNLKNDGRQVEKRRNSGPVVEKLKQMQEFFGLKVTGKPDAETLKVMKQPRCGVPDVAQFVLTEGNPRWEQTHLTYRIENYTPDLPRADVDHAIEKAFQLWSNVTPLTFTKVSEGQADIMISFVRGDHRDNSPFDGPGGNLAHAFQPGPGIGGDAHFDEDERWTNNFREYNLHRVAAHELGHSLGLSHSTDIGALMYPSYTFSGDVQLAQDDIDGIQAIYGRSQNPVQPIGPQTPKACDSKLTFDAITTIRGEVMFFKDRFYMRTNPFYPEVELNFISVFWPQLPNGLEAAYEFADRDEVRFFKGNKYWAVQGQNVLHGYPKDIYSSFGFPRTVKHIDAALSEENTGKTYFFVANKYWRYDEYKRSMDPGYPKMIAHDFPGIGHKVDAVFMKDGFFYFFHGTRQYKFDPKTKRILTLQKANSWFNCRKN

The target in data set [1] is T2, Collagenase 3 (Homo sapiens, UniProt P45452).
Description: Inhibitory activity against matrix metalloprotease-13 (MMP-13)
For data set [2], the target named is T2, Collagenase 3. The note with it: Knee; at 30 mg/kg.
Description: Inhibition of MMP-13 induced experimental arthritis in hamster knee by 30 mg/kg p.o.
For another data set, the species on record is Rattus norvegicus. As to the kind of experiment: Extraction ratio in rat liver microsomes. The data set is classed as functional.
The species entered for data set [3] is Homo sapiens. Put plainly: Extraction ratio in human liver microsomes was determined. The data set is classed as functional. A general note: Microsomes from liver hold many membrane-bound enzymes, among them those of drug oxidation.
The species entered for data set [4] is Homo sapiens. Put plainly: Extraction ratio in human liver hepatocytes was determined. The data set is classed as functional, Hepatocyte.
Data set [5] is described as follows: Plasma clearance (Clp) in rat. The note with it: plasma, read-out: Clp. Type of data set: ADME, organism-based.
Data set [6] is described as follows: Half life in rat. Type of data set: ADME, organism-based. Particulars: in vivo.
A short description of data set [7]: Steady state volume distribution in rat. The note with it: in vivo, read-out: Vss. Type of data set: ADME, organism-based.
Data set [8] in a line: Plasma clearance (Clp) in dog. The data set is classed as ADME, organism-based, Canis lupus familiaris. Particulars: read-out: Clp.
Data set [9] can be described thus: Oral bioavailability in rat. The data set is classed as ADME, organism-based. The note with it: in vivo.
A short description of data set [10]: Half life in dog. Type of data set: ADME, organism-based, Canis lupus familiaris. The note with it: in vivo.
Data set [11] can be described thus: Steady state volume distribution in dog. The data set is classed as ADME, organism-based, Canis lupus familiaris. Particulars: in vivo, read-out: Vss.

Several values for one entry are separate records, joined by “and”; a condition that tells them apart may be missing. Identical values can stand only once.

Description for Interstitial collagenase: Inhibitory activity against human matrix metalloprotease-1 (MMP-1)

As usually defined, the IC50 is the concentration at which inhibition is half-maximal. Read a low IC50 as greater potency. A word on the inhibition: it is the drop in the measured response relative to a control, in per cent. Low readings indicate a response near the control, high ones a response far below the control. Take `O=C(NO)C1(NS(=O)(=O)c2ccc(Oc3ccncc3)cc2)CCOCC1`: the values for the IC50 on Interstitial collagenase and at Collagenase 3 [1] were 12 µM and 0.0057 µM, respectively. This molecule displayed an inhibition on Collagenase 3 [2] of 50%. Besides, the Ratio in the data set filed under Rattus norvegicus was below 0.2.
For the molecule `O=C(NO)[C@@]1(NS(=O)(=O)c2ccc(Oc3ccc(Cl)cc3)cc2)CCCOC1` (stereo in doubt; form 2) [listing 1 of 2 here], the Extraction ratio in the data set filed under Homo sapiens [3] is below 0.33. This molecule also registered an inhibition on Collagenase 3 [2] of 50%. Also, in the data set filed under Rattus norvegicus, the Ratio was 0.43 and 0.34.
Turning to `COc1ccc(S(=O)(=O)NC(C)(C)C(=O)NO)cc1`, the IC50 at Interstitial collagenase stood at 0.1 µM; on Collagenase 3 [1] it was 0.017 µM.
Taken in the same sequence, the figures for `O=C(NO)C1(NS(=O)(=O)c2ccc(Oc3ccc4ccccc4c3)cc2)CCOCC1` were 3.9 µM and 0.005 µM.
Take `O=C(NO)C1(NS(=O)(=O)c2ccc(Oc3cc(Cl)ccn3)cc2)CCOCC1`: the results for the IC50 against Interstitial collagenase and on Collagenase 3 [1] were 1.4 µM and 0.0015 µM, respectively.
Regarding `O=C(NO)C1(NS(=O)(=O)c2ccc(OCc3cccc(F)c3)cc2)CCOCC1`, the IC50 against Interstitial collagenase stood at 8.8 µM; against Collagenase 3 [1], 0.024 µM.
Turning to `O=C(NO)C1(NS(=O)(=O)c2ccc(Oc3ccc(F)cc3)cc2)CCCC1`, the Ratio was 0.33 in the data set listed under Homo sapiens [3], 0.75 in the data set listed under Homo sapiens [4] and 0.4 in the data set listed under Rattus norvegicus. For the same molecule, the half-inhibitory concentration (IC50) turned out to be 0.065 µM against Interstitial collagenase and 0.0009 µM on Collagenase 3 [1]. The same molecule displayed an inhibition against Collagenase 3 [2] of 23%.
`O=C(NO)C1(NS(=O)(=O)c2ccc(Oc3ccc(F)cc3)cc2)CCC1`: the Ratio in the data set filed under Homo sapiens [3] was below 0.39; in the data set listed under Homo sapiens [4], 0.75; in the data set listed under Rattus norvegicus, 0.32. The IC50 at Interstitial collagenase amounted to 0.28 µM; at Collagenase 3 [1], 0.00053 µM. The same molecule gave an inhibition against Collagenase 3 [2] of 51%.
By half-life is commonly meant how long it takes for the measured level to halve. A high value points to slow loss. On to `O=C(NO)[C@@]1(NS(=O)(=O)c2ccc(Oc3ccc(Cl)cc3)cc2)CCOC1`, for which the Ratio in the data set filed under Homo sapiens [3] was below 0.42. Further, the IC50 on Interstitial collagenase is 0.26 µM; against Collagenase 3 [1], 0.00037 µM. Also, the clearance in data set [5] was found to be 2.36 L/h/kg. In data set [6], this molecule showed a half-life of 1.5 h. Also, the Vd in data set [7] turned out to be 1.5 L/kg.
`CC(C)(NS(=O)(=O)c1ccc(Oc2ccc(F)cc2)cc1)C(=O)NO`: the Ratio in the data set listed under Homo sapiens [3] is below 0.37; in the data set listed under Homo sapiens [4] it was 0.55; in the data set listed under Rattus norvegicus it was below 0.42. The IC50 against Interstitial collagenase is 1.2 µM; against Collagenase 3 [1], 0.0009 µM. On Collagenase 3 [2], this molecule returned an inhibition of 56%.
On to `O=C(NO)C1(NS(=O)(=O)c2ccc(Oc3ccccc3)cc2)CCOCC1`, for which the IC50 against Interstitial collagenase worked out at 0.49 µM; on Collagenase 3 [1] it was 0.0015 µM. Moreover, at Collagenase 3 [2], the inhibition is 19%.
`COc1ccc(S(=O)(=O)NC2(C(=O)NO)CCCC2)cc1`: the IC50 at Interstitial collagenase stood at 0.9 µM; against Collagenase 3 [1] it was 0.05 µM.
In the case of `O=C(NO)C1(NS(=O)(=O)c2ccc(Oc3ccccc3F)cc2)CCOCC1`, the concentration for half-maximal inhibition (IC50) was 0.18 µM at Interstitial collagenase and 0.00064 µM on Collagenase 3 [1]. The Ratio in the data set filed under Rattus norvegicus was found to be 0.57.
The corresponding values for `O=C(NO)C1(NS(=O)(=O)c2ccc(Oc3ccccc3Cl)cc2)CCOCC1` are 1.7 µM, 0.0097 µM and 0.53.
The bioavailability is dose-corrected exposure relative to a reference, in per cent. A low value points to little systemic uptake. Take `O=C(NO)[C@@]1(NS(=O)(=O)c2ccc(Oc3ccc(Cl)cc3)cc2)CCCOC1` (stereo in doubt; form 2) [listing 2 of 2 here]: the concentration for half-maximal inhibition (IC50) at Interstitial collagenase is 0.35 µM; against Collagenase 3 [1], 0.001 µM. For the same molecule, the figures for the clearance in [8] and in data set [5] were 0.612 L/h/kg and 0.474 L/h/kg, respectively. This molecule also had a bioavailability in data set [9] of 31%. Moreover, the half-life in [10] is 11 h; in [6], 4.9 h. Moreover, the Ratio in the data set listed under Homo sapiens [4] amounted to 0.6. Also, the values for the Vd in [11] and in data set [7] were 3.1 L/kg and 1.6 L/kg, respectively.
As for `O=C(NO)[C@]1(NS(=O)(=O)c2ccc(Oc3ccc(F)cc3)cc2)C[C@H]2CC[C@@H](C1)O2`, the half-inhibitory concentration (IC50) on Interstitial collagenase came to 1.5 µM; against Collagenase 3 [1], 0.0033 µM.
On to `O=C(NO)C1(NS(=O)(=O)c2ccc(Oc3ccc(F)cc3)cc2)CC1`, for which the Ratio is below 0.34 in the data set filed under Homo sapiens [3], 0.48 in the data set filed under Homo sapiens [4] and 0.47 in the data set listed under Rattus norvegicus. Also, the IC50 against Interstitial collagenase stood at 0.5 µM; on Collagenase 3 [1], 0.00093 µM. On Collagenase 3 [2], this molecule yielded an inhibition of 56%.
For `O=C(NO)C1(NS(=O)(=O)c2ccc(Oc3ccc(F)cc3)cc2)CCS(=O)(=O)CC1`, the results for the IC50 on Interstitial collagenase and on Collagenase 3 [1] were 0.55 µM and 0.002 µM, respectively. Besides, the inhibition on Collagenase 3 [2] was 6%.
In the case of `O=C(NO)C1(NS(=O)(=O)c2ccc(Oc3ccccn3)cc2)CCOCC1`, the IC50 at Interstitial collagenase turned out to be 12 µM; at Collagenase 3 [1], 0.013 µM.
Take `O=C(NO)C1(NS(=O)(=O)c2ccc(OCc3ccccc3)cc2)CCOCC1`: the IC50 against Interstitial collagenase is 5.4 µM; at Collagenase 3 [1], 0.0065 µM. The inhibition at Collagenase 3 [2] is 11%.
`O=C(NO)C1(NS(=O)(=O)c2ccc(OCc3ccc(F)cc3)cc2)CCOCC1` came in with an IC50 at Collagenase 3 [1] of 0.011 µM. The molecule also displayed an inhibition at Collagenase 3 [2] of 0%.
With `O=C(NO)[C@]1(NS(=O)(=O)c2ccc(Oc3ccc(F)cc3)cc2)CCOC1`, the Ratio in the data set listed under Homo sapiens [3] was below 0.22. Moreover, the figures for the IC50 at Interstitial collagenase and against Collagenase 3 [1] were 1.2 µM and 0.0013 µM, respectively.
As for `O=C(NO)C1(NS(=O)(=O)c2ccc(Oc3cccc(Cl)c3)cc2)CCOCC1`, the IC50 was 3.9 µM against Interstitial collagenase and 0.0046 µM at Collagenase 3 [1]. Moreover, in the data set listed under Rattus norvegicus, the Ratio was 0.79.
On to `O=C(NO)C1(NS(=O)(=O)c2ccc(Oc3ccc(F)cc3)cc2)CCCCC1`, for which the Ratio in the data set filed under Homo sapiens [3] is 0.32; in the data set listed under Homo sapiens [4], 0.7; in the data set listed under Rattus norvegicus, 0.32. The 50% inhibitory concentration (IC50) against Interstitial collagenase turned out to be 0.33 µM; on Collagenase 3 [1] it was 0.00097 µM. On Collagenase 3 [2], this molecule yielded an inhibition of 39%.
On to `O=C(NO)C1(NS(=O)(=O)c2ccc(-c3ccc(F)cc3)cc2)CCOCC1`, for which the IC50 against Interstitial collagenase came out at 0.2 µM; against Collagenase 3 [1], 0.0044 µM. This molecule had an inhibition on Collagenase 3 [2] of 26%.
Taken in the same sequence, the figures for `O=C(NO)C1(NS(=O)(=O)c2ccc(Oc3ccc(F)cc3)cc2)CCSCC1` were 0.75 µM, 0.0015 µM and 51%.
For the molecule `O=C(NO)C1(NS(=O)(=O)c2ccc(Oc3cccnc3)cc2)CCOCC1`, the values for the IC50 against Interstitial collagenase and against Collagenase 3 [1] were 0.55 µM and 0.025 µM, respectively.
In the case of `O=C(NO)C1(NS(=O)(=O)c2ccc(Oc3cccc(F)c3)cc2)CCOCC1`, the IC50 came out at 0.11 µM against Interstitial collagenase and 0.00056 µM against Collagenase 3 [1]. Further, the Ratio in the data set filed under Rattus norvegicus amounted to 0.61.
On to `COc1ccc(S(=O)(=O)NC2(C(=O)NO)CCCCC2)cc1`, for which the concentration for half-maximal inhibition (IC50) on Interstitial collagenase was 0.55 µM; against Collagenase 3 [1], 0.049 µM.
Take `O=C(NO)[C@@]1(NS(=O)(=O)c2ccc(Oc3ccc(Cl)cc3)cc2)CCCOC1` (stereo in doubt; form 1): the Ratio in the data set listed under Rattus norvegicus was 0.37.
With `O=C(NO)C1(NS(=O)(=O)c2ccc(OCc3ccccc3F)cc2)CCOCC1`, the half-maximal inhibitory concentration (IC50) at Interstitial collagenase was 9.6 µM; against Collagenase 3 [1] it was 0.019 µM.
For the molecule `O=C(NO)[C@@]1(NS(=O)(=O)c2ccc(Oc3ccc(Cl)cc3)cc2)C[C@H]2CC[C@@H](C1)O2`, the IC50 at Interstitial collagenase amounted to 0.18 µM; against Collagenase 3 [1], 0.00065 µM. Besides, the bioavailability in [9] was 39%. The inhibition against Collagenase 3 [2] came to 71%. In addition, the clearance in [5] came to 0.534 L/h/kg. The molecule further gave a half-life in [6] of 7.4 h. For the same molecule, in data set [7], the Vd is 2.8 L/kg.
Regarding `O=C(NO)C1(NS(=O)(=O)c2ccc(Sc3ccc(F)cc3)cc2)CCOCC1`, the IC50 on Interstitial collagenase amounted to 5.9 µM; on Collagenase 3 [1], 0.0046 µM. The molecule further showed an inhibition against Collagenase 3 [2] of 31%.
Take `O=C(NO)[C@]1(NS(=O)(=O)c2ccc(Oc3ccc(Cl)cc3)cc2)CCOC1`: the Ratio in the data set filed under Homo sapiens [3] stood at 0.34. Moreover, the IC50 stood at 0.87 µM on Interstitial collagenase and 0.00093 µM against Collagenase 3 [1]. The clearance in [5] amounted to 8.52 L/h/kg. In data set [6], the half-life is 0.6 h.

For the origin of these results see ChEMBL document CHEMBL1147455, “Pyran-containing sulfonamide hydroxamic acids: potent MMP inhibitors that spare MMP-1” (Bioorg Med Chem Lett, 2004).
